The values below come from EP0309421A2, “O-alkanoyl derivatives of 3-amino-2-hydroxypropanesulfonic acid having anticonvulsivant activity and pharmaceutical compositions containing same for the therapeutical treatment of epilepsy” (SIGMA TAU Industrie Farmaceutiche Riunite S.p.A., priority 1987, dated 1989).

SMILES strings stand for the structures. Marks after values point to notes of the source that are not given here.

Data set [1] relates to cardiazol-induced convulsions. Kind of data set: Anticonvulsivant test, cardiazol-induced convulsions. It is filed as in vivo, male albino swiss (Charles River) mice. The protocol: (§1) Anticonvulsivant tests were carried out using cardiazol, strychnine and bicuculline at doses of 100 mg/10 ml/kg i.p., 0.73 mg/10 ml/kg s.c. and 2.38 mg/10 ml/kg s.c., respectively, chosen in such a way as to provoke death in 50% of the control animals.
(§2) The tests were carried out in male albino swiss (Charles River) mice weighing 22-24 g. The compound under examination, dissolved in water, was i.p. administered 30 minutes before the convulsivant agent administration.
(§3) As reference substance, 3-APS (200-400-800 mg/10 ml/kg i.p.) was used.

Data set [2] deals with strychnine-induced convulsions. Kind of data set: Anticonvulsivant test, strychnine-induced convulsions. It is filed as in vivo, male albino swiss (Charles River) mice. Here is the method: as §1, §2, §3
Data set [3] deals with bicuculline-induced convulsions. Kind of data set: Anticonvulsivant test, bicuculline-induced convulsions. In kind it is in vivo, male albino swiss (Charles River) mice. Here is the method:
as §1, §2, §3

Data set [4] relates to male and female Sprague Dawley rats. Kind of data set: Toxicity test, oral administration for 15 consecutive days. The settings on record: 150-450-1350 mg/10 ml/kg for 15 consecutive days. It is filed as in vivo. Here is the method: The toxicity tests were carried out on male and female Sprague Dawley rats which were orally administered ST549 at the doses of 150-450-1350 mg/10 ml/kg for 15 consecutive days; the control animals were administered the same volume of vehicle as the test animals.

Data set [5] relates to male albino swiss mice. Kind of data set: Tolerability test, intravenous. The settings on record: 1.4 g/kg intravenously, in sterile saline at neutral pH. It is filed as in vivo. The protocol: The tolerability test was carried out on male albino swiss mice weighing 22-24 g.
The subject of data set [6] is FeCl3-induced epilepsy. Kind of data set: Antiepileptic activity test (FeCl3-induced epilepsy model). In kind it is in vivo, Male albino Wistar rats. Particulars: 500, 250 and 125 mg/kg i.v. ninety minutes following FeCl3 injection; Mann-Whitney's "U" test, P<0.05. The protocol:
Male albino Wistar rats weighing 250-300 g were used. The animals, anaesthetized with Nembutal Na (30 mg/kg e.p.), were stereotactically injected in their left ventral hippocampus one microliter of 0.55 M FeC13 solution (AP =-3.2; L=5.0; H=5.5 Pellegrino and Cushman, 1971). Ten minutes following injection, recording electrodes were implanted: in both ventral hippocampi, two millimeters below the FeC13 injection site (bipolars), bilaterally on the frontoparietal cortex (monopolars). […] The epilepsy degree was assessed by calculating for each animal the number and duration in seconds of the seizures at 5-minute intervals during the whole recording span both in the hippocampus where the injection had been performed and in the contralateral cortex. Moreover, an "index of epileptization" was calculated as the mean product of seizure number times the duration of the seizures in each time interval. […]
The results thus obtained show the antiepileptic activity of the compound assessed by examining the whole phenomenon as it evolves in time via the measure (carried out with the trapezoidal rule) of the area under the curve wherein the average number of seizures and their duration is plotted versus time.

Data set [7] relates to auricular electroshock. Kind of data set: Auricular electroshock (maximal electroshock). Particulars: 14 animals, control 6/14. In kind it is in vivo, Male albino Swiss mice. The protocol: Male albino Swiss mice weighing 22-24 g were used in this test. The electroshock conditions were the following: • shock duration: 3 seconds; frequence: 100; pulse amplitude: 0.6 milliseconds, current intensity: 40 milliamperes. • 400 and 800 mg/10 ml/kg of the compound under examination were administered via the intraperitoneal route 30 minutes before the electroshock.
The tests results which illustrate the number of animals preserved from death provoked by maximal electroshock are shown in the following Table 3.
On the technique in general: Protection in the maximal electroshock model is a classic sign of anticonvulsant action.

A short description of data set [8]: Stability of the solid product versus pH (deacylation). In kind it is physicochemical. The settings on record: above it deacylation of the compound takes place. The text has this: After it had been cooled to room temperature the mixtured was filtered and the filtrate added dropwise to an Erlenmeyer flask containing about 700 milliliters of ethyl ether. A white precipitate formed which was again dissolved in methanol, filtered and re-precipitated with ether. Upon drying 7.3 g of a white, hygroscopic solid product, stable at pH <6.3 were obtained; above this […] deacylation of the compound takes place. • Elementary analysis: [formula] • NMR corresponding

The mark [9] stands for this setting: Cardiazol, ST 549 i.p., equimolar to 400 mg/kg 3APS.
Where [10] appears, read: lower dose (equimolar to 200 mg/10 ml/kg of 3-APS).
Setting [11] is: Strychnine, ST 549 i.p., equimolar to 400 mg/kg 3APS.
[12] abbreviates: Bicuculline, ST 549 i.p., equimolar to 400 mg/kg 3APS.
[13] abbreviates: Cardiazol, 3-APS 400 mg/kg i.p.
The mark [14] stands for this setting: Cardiazol, 3-APS 800 mg/kg i.p.
Setting [15] is: doses of 200,400 and 800 mg/10 ml/kg i.p.
Where [16] appears, read: Strychnine, 3-APS 400 mg/kg i.p.
Where [17] appears, read: Strychnine, 3-APS 800 mg/kg i.p.
The mark [18] stands for this setting: Bicuculline, 3-APS 800 mg/kg i.p.

As to `CC(=O)OC(CN)CS(=O)(=O)O` (stereo not shown) [ST 549, 3-amino-2-acetyloxy propanesulfonic acid], the “% Conv.” value in data set [1] (Cardiazol, ST 549 i.p., dose equimolar to 200 mg/kg 3APS, 10 animals) is on record as 100%; in data set [1] (setting [9]) it was 90%; in data set [2] (Strychnine, ST 549 i.p., equimolar to 200 mg/kg 3APS, 10 animals), 100%; in data set [2] (setting [11]) it was 100%; in data set [3] (Bicuculline, ST 549 i.p., equimolar to 200 mg/kg 3APS, 10 animals), 70%; in data set [3] (setting [12]), 60%. In addition, the “% Death rate” value turned out to be 50% in data set [1] (Cardiazol, ST 549 i.p., equimolar to 200 mg/kg 3APS); 0% in data set [1] (setting [9]); 90% in data set [2] (Strychnine, ST 549 i.p., equimolar to 200 mg/kg 3APS); 90% in data set [2] (setting [11]); 60% in data set [3] (Bicuculline, ST 549 i.p., equimolar to 200 mg/kg 3APS); 60% in data set [3] (setting [12]). Also, the “animals preserved from cardiazol-induced death” value in data set [1] (dose equimolar to 400 mg/10 ml/kg i.p. of 3-APS) is 100%. Further, the “effect on the relevant parameters (cardiazol)” value in data set [1] (setting [10]) is listed as “did not affect the relevant parameters”. Further, the “latency time of strychnine-induced death” value in data set [2] (setting [10]) was “significantly increased”. In addition, in data set [2] (setting [10]), the “latency time of strychnine-induced first convulsion” value is “significantly increased”. Also, the “decrease of bicuculline-induced death rate” value in data set [3] (doses equimolar to 400 and 200 mg/10 ml/kg i.p. of 3-APS) was found to be 30%. Further, the “animals preserved from convulsions (bicuculline)” value in data set [3] (doses equimolar to 400 and 200 mg/10 ml/kg i.p. of 3-APS, printed as "the same percentage") is reported as 30%. Besides, the “general health or behaviour of the animals” value in data set [4] was “did not affect”. In addition, the “Autopsy, main organs” value in data set [4] (at the end of the test) is on record as “did not reveal either alterations or lesions to the main organs”. The “blood and urine parameters” value in data set [4] (with respect to the controls) was “unchanged”. Also, the tolerability entry in data set [5] is “well tolerated”. Further, in data set [6], the “area under the curve of average number of seizures and their duration versus time, compared with controls” value is listed as “statistically significant difference”. Moreover, the death rate in data set [7] (400 mg/kg i.p. 30 minutes before the electroshock) and in data set [7] (800 mg/kg i.p. 30 minutes before the electroshock) was 3/14 each time.

Take `NCCCS(=O)(=O)O` [3-APS, 3-aminopropanesulfonic acid]: the “% Conv.” value in data set [1] (Cardiazol 100 mg/10 ml/kg i.p., 3-APS 200 mg/kg i.p. 30 min before, 10 animals) is 100%; in data set [1] (setting [13]) it was 100%; in data set [1] (setting [14]), 100%; in data set [2] (Strychnine 0.73 mg/10 ml/kg s.c., 3-APS 200 mg/kg i.p. 30 min before, 10 animals), 100%; in data set [2] (setting [16]) it was 100%; in data set [2] (setting [17]), 100%. The “% Conv.” value is reported as 100% in data set [3] (Bicuculline 2.38 mg/10 ml/kg s.c., 3-APS 200 mg/kg i.p. 30 min before, 10 animals); 100* % in data set [3] (Bicuculline, 3-APS 400 mg/kg i.p., 8 animals per group); 70% in data set [3] (setting [18]). Also, the “% Death rate” value in data set [1] (Cardiazol, 3-APS 200 mg/kg i.p.) is 50%; in data set [1] (setting [13]), 90%; in data set [1] (setting [14]), 60%; in data set [2] (Strychnine, 3-APS 200 mg/kg i.p.) it was 90%; in data set [2] (setting [16]) it was 100%; in data set [2] (setting [17]), 90%. The “% Death rate” value came to 100% in data set [3] (Bicuculline, 3-APS 200 mg/kg i.p.); 75% in data set [3] (Bicuculline, 3-APS 400 mg/kg i.p.); 40% in data set [3] (setting [18]). Further, the “preservation from cardiazole-induced death” value in data set [1] (setting [15]) is “did not preserve animals”. In addition, the “preservation from strychnine-induced death” value in data set [2] (setting [15]) is “did not preserve animals”. The “latency time of bicuculline-induced death” value in data set [3] (400 mg/10 ml/kg i.p.) is “significantly increased”. Also, in data set [3] (800 mg/kg i.p.), the “latency time of the bicuculline-induced first convulsion” value was “significantly increased”. Also, the “preservation from bicuculline-induced death” value in data set [3] (setting [15]) is on record as “did not preserve animals”.

For the molecule `CCCC(=O)OC(CN)CS(=O)(=O)O.Cl` (stereo not shown) [ST 477, 3-amino-2-butanoyloxypropanesulfonic acid hydrochloride], the “stable at pH” value in data set [8] is less than 6.3.
